Active and inactive are the calls of the source. The calls are words filed in the database; no cut-off is given here.
Key:
[1] = target: T1, Atrial natriuretic peptide receptor 1 (Homo sapiens, UniProt P16066); assay: Agonist activity at human NPR-A expressed in CHO cells assessed as increase in cGMP accumulation after 30 mins by radioimmunoassay; format: cell-based
T1 sequence (P16066 whole entry): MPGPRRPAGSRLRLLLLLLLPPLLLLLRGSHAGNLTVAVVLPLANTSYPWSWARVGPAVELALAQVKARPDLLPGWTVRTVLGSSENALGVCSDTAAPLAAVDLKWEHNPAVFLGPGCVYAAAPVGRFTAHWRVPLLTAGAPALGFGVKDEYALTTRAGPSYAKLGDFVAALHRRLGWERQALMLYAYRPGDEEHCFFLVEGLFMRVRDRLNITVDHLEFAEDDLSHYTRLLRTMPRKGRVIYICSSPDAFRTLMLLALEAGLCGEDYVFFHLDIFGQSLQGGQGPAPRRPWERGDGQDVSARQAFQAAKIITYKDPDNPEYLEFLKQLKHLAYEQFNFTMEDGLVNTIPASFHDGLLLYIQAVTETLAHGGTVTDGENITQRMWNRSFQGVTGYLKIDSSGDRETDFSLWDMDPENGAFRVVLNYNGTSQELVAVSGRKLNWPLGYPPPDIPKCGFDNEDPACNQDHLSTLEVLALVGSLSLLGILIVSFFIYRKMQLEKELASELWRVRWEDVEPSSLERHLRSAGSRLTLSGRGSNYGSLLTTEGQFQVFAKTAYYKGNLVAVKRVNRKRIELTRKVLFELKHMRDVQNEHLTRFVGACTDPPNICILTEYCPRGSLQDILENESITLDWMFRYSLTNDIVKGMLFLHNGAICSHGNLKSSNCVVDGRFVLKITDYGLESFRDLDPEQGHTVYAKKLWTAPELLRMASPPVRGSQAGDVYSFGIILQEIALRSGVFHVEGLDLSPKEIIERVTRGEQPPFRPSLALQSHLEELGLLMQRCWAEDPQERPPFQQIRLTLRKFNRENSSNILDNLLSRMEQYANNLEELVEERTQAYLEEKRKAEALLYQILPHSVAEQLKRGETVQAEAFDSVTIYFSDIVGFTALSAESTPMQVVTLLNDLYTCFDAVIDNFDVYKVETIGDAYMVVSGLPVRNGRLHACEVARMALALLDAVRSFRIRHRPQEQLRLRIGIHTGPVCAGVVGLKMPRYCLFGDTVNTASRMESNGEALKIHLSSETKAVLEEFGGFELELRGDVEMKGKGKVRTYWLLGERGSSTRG

[2] = target: T2, Atrial natriuretic peptide receptor 1 (Rattus norvegicus, UniProt P18910); assay: Agonist activity at rat NPR-A expressed in CHO cells assessed as increase in cGMP accumulation after 15 mins by fluorescent assay; format: cell-based
T2 sequence (P18910 whole entry): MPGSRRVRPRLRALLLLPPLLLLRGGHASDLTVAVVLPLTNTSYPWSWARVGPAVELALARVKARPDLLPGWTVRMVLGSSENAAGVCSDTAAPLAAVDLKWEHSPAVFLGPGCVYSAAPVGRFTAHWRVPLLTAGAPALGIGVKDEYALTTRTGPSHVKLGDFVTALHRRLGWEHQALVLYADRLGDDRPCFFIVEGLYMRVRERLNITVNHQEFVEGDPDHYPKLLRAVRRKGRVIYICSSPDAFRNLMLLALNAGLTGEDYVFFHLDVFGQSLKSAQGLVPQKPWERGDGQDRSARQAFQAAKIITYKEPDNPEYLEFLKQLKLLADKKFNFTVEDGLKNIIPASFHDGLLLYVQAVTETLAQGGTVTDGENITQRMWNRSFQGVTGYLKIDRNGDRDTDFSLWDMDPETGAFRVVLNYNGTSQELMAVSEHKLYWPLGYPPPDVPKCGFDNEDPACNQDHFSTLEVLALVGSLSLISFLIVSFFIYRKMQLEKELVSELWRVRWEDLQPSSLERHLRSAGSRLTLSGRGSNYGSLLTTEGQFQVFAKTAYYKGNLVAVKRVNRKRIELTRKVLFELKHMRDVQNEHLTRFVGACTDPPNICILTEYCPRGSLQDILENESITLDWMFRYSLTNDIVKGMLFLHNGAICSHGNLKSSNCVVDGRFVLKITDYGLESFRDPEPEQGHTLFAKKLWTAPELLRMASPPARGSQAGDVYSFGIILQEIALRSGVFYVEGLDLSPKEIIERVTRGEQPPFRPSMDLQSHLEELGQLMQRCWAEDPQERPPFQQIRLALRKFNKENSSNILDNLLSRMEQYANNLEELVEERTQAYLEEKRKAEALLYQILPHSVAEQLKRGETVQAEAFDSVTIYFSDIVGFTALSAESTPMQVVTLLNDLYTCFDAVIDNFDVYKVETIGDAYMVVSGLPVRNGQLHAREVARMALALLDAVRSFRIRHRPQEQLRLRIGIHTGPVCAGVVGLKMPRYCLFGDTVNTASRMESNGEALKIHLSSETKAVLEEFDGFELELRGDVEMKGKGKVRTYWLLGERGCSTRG

[3] = system: Rattus norvegicus; assay: In vivo agonist activity at NPR-A in Crl:CD(SD) rat assessed as increase in cGMP accumulation in plasma at 1 mg/kg/min, iv administered via infusion for 15 mins measured after 30 mins by radioimmunoassay; format: functional, organism-based
[4] = system: Rattus norvegicus; assay: In vivo agonist activity at NPR-A in Crl:CD(SD) rat assessed as increase in cGMP accumulation in lungs at 1 mg/kg/min; format: functional, organism-based
[5] = system: Rattus norvegicus; assay: In vivo agonist activity at NPR-A in Crl:CD(SD) rat assessed as increase in cGMP accumulation in heart at 1 mg/kg/min; format: functional, organism-based
[6] = system: Rattus norvegicus; assay: Diuretic activity in Crl:CD(SD) rat assessed as increase in urine volume at 1 mg/kg/min, iv administered as infusion over 30 mins measured after 20 mins post dose; format: functional, organism-based
[7] = system: Rattus norvegicus; assay: Diuretic activity in Crl:CD(SD) rat assessed as increase in urine volume at 1 mg/kg/min, iv administered as infusion over 30 mins measured after 40 mins post dose; format: functional, organism-based

Structure (SMILES)	EC50 [1] [nM]	EC50 [2] [nM]	other results
CC(C)Nc1nc(N[C@H]2CC[C@@H](NC(=O)N(C)C(C)C)CC2)c2cc(-c3cccc(F)c3)ccc2n1	4000	3000	–
C[C@H](CO)Nc1nc(N[C@H]2CC[C@H](NC(=O)N3CC(O)C3)CC2)c2cc(-c3cccc(F)c3)ccc2n1	420	900	–
C[C@H](CO)Nc1nc(N[C@H]2CC[C@@H](NC(=O)NC3CC3)CC2)c2cc(-c3cccc(F)c3)ccc2n1	330	180	–
CC(C)NC(=O)N[C@H]1CC[C@@H](Nc2nc(NC(C)C)nc3ccc(-c4cccc(F)c4)cc23)CC1	1500	420	–
CC(C)[C@H](CO)NC(=O)N[C@H]1CC[C@@H](Nc2nc(N[C@H](C)CO)nc3cnc(-c4cccc(F)c4)cc23)CC1	620	130	–
C[C@H](CO)Nc1nc(N[C@H]2CC[C@H](NC(=O)[C@H]3C[C@H](O)C3)CC2)c2cc(-c3ccccc3)ccc2n1	900	1800	–
CC(C)NC(=O)N[C@H]1CC[C@@H](Nc2nc(N(C)CCO)nc3ccc(-c4cccc(F)c4)cc23)CC1	720	2100	–
C[C@H](CO)Nc1nc(N[C@H]2CC[C@@H](NC(=O)NC3CCCN(C)C3)CC2)c2cc(-c3cccc(F)c3)ccc2n1 (stereo partly specified)	780	3200	–
C[C@H](CO)Nc1nc(N[C@H]2CC[C@H](NC(=O)[C@H]3C[C@H](O)C3)CC2)c2cc(-c3cccc(F)c3)ccc2n1	470	700	–
COC[C@@H](C)Nc1nc(N[C@H]2CC[C@@H](NC(=O)NC(C)C)CC2)c2nc(-c3cccc(F)c3)ccc2n1	4000	1600	–
CC(C)N[C@H]1C[C@H](C(=O)N[C@H]2CC[C@H](Nc3nc(N[C@H](C)CO)nc4ccc(-c5ccccc5)cc34)CC2)C1	320	2000	–
CC(C)Nc1nc(N[C@H]2CC[C@@H](NC(=O)N[C@@H](CO)C(C)C)CC2)c2cc(-c3cccc(F)c3)ccc2n1	1000	290	–
COC[C@H](C)Nc1nc(N[C@H]2CC[C@@H](NC(=O)NC3CC3)CC2)c2cc(-c3cccc(F)c3)ccc2n1	850	1800	–
COC[C@@H](C)Nc1nc(N[C@H]2CC[C@@H](NC(=O)NC3CC3)CC2)c2cc(-c3cccc(F)c3)ccc2n1	340	270	–
COCCNc1nc(N[C@H]2CC[C@@H](NC(=O)NC(C)C)CC2)c2cc(-c3cccc(F)c3)ccc2n1	380	610	–
CC(C)NC(=O)N[C@H]1CC[C@H](Nc2nc(N[C@H](C)CO)nc3ccc(-c4cccc(F)c4)cc23)CC1	460	530	–

Continued by falling EC50 [1], values first:

EC50 [1] [nM]	EC50 [2] [nM]	Structure (SMILES)	other results
320	74	CC(C)NC(=O)N[C@H]1CC[C@@H](Nc2nc(N[C@H](C)CO)nc3ccc(-c4cccc(F)c4)cc23)CC1	–
220	66	C[C@H](CO)Nc1nc(N[C@H]2CC[C@@H](NC(=O)NC(C)(C)CO)CC2)c2cc(-c3cccc(F)c3)ccc2n1	Activity [3]: Active
200	160	COC[C@@H](C)Nc1nc(N[C@H]2CC[C@@H](NC(=O)NC(C)C)CC2)c2cc(-c3cccc(F)c3)ccc2n1	–
110	62	CC(C)[C@H](CO)NC(=O)N[C@H]1CC[C@@H](Nc2nc(N[C@H](C)CO)nc3ncc(-c4cccc(F)c4)cc23)CC1	Activity [3]: Active; Activity [4]: Active; Activity [5]: Active; Activity [6]: Active; Activity [7]: Active
98	43	CC(C)Nc1nc(N[C@H]2CC[C@@H](NC(=O)N[C@@H](CO)C(C)C)CC2)c2cc(-c3cccc(F)c3)cnc2n1	Activity [3]: Active
78	120	C[C@H](CO)Nc1nc(N[C@H]2CC[C@@H](NC(=O)NC3(CO)CCCC3)CC2)c2cc(-c3cccc(F)c3)ccc2n1	–
71	65	CC(C)[C@H](CO)NC(=O)N[C@H]1CC[C@@H](Nc2nc(N[C@H](C)CO)nc3ccc(-c4cccc(F)c4)cc23)CC1	Activity [3]: Active
41	330	CC(C)[C@@H](CO)NC(=O)N[C@H]1CC[C@@H](Nc2nc(N[C@H](C)CO)nc3ccc(-c4cccc(F)c4)cc23)CC1	–
